Measured values taken from PubChem BioAssay AID2060503 (Molecular Pharmacology Branch, DTP, NCI, 2025).
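Also: spheroids exposed to agents for 7 days before readout; percent viability relative to DMSO vehicle control taken as 100%.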

The compounds below were run on 817829-284-R-J1-PDC complex spheroids, viability (assay: Anticancer human tumor 817829-284-R-J1-PDC patient-derived colon adenocarcinoma cell line growth inhibition [GQUAD]). Details: second compound 0.0316 µM; first compound 3.16 µM; hits give low values.
Method in brief: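 Viability of tumor cells grown as complex spheroids with endothelial and stromal cells, exposed to drug combinations. Top concentration at or near clinical Cmax (else 10 microM), diluted in half-log increments.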
For `C=CCn1c(=O)c2cnc(Nc3ccc(N4CCN(C)CC4)cc3)nc2n1-c1cccc(C(C)(C)O)n1` + Cc1cnc(CNC(=O)c2c(=O)c3ccc(N4CCCN(C)CC4)nc3n3c2sc2ccccc23)cn1, the viability, T/C was 4.9%. In the case of `CC(C)(O)C1CCC(Nc2ccc3ncc(-c4cccc(C(F)(F)F)c4)n3n2)CC1` (stereo unspecified) + Cc1cnc(CNC(=O)c2c(=O)c3ccc(N4CCCN(C)CC4)nc3n3c2sc2ccccc23)cn1, the viability, T/C is reported as 5.43%. In the case of `CCCS(=O)(=O)Nc1ccc(F)c(C(=O)c2c[nH]c3ncc(-c4ccc(Cl)cc4)cc23)c1F` + Cc1cnc(CNC(=O)c2c(=O)c3ccc(N4CCCN(C)CC4)nc3n3c2sc2ccccc23)cn1, the viability, T/C is reported as 30.9%. With `O=C(NO)c1cnc(N2CCN(S(=O)(=O)c3ccc4ccccc4c3)CC2)nc1` + Cc1cnc(CNC(=O)c2c(=O)c3ccc(N4CCCN(C)CC4)nc3n3c2sc2ccccc23)cn1 the viability, T/C was 0.03%.

Same assay, conditions: second compound 0.0316 µM; first compound 10 µM; hits give low values
Work on `C#Cc1c(F)ccc2cc(O)cc(-c3ncc4c(N5CC6CCC(C5)N6)nc(OCC56CCCN5CC(F)C6)nc4c3F)c12` (stereo unspecified) + Cc1cnc(CNC(=O)c2c(=O)c3ccc(N4CCCN(C)CC4)nc3n3c2sc2ccccc23)cn1 yielded a viability, T/C of 89.8%. `C=CCn1c(=O)c2cnc(Nc3ccc(N4CCN(C)CC4)cc3)nc2n1-c1cccc(C(C)(C)O)n1` + Cc1cnc(CNC(=O)c2c(=O)c3ccc(N4CCCN(C)CC4)nc3n3c2sc2ccccc23)cn1 was tested, and the viability, T/C was 4.63%. Work on `CC(C)(O)C1CCC(Nc2ccc3ncc(-c4cccc(C(F)(F)F)c4)n3n2)CC1` (stereo unspecified) + Cc1cnc(CNC(=O)c2c(=O)c3ccc(N4CCCN(C)CC4)nc3n3c2sc2ccccc23)cn1 yielded a viability, T/C of 13.3%. Work on `CCCS(=O)(=O)Nc1ccc(F)c(C(=O)c2c[nH]c3ncc(-c4ccc(Cl)cc4)cc23)c1F` + Cc1cnc(CNC(=O)c2c(=O)c3ccc(N4CCCN(C)CC4)nc3n3c2sc2ccccc23)cn1 yielded a viability, T/C of 11.8%. `O=C(NO)c1cnc(N2CCN(S(=O)(=O)c3ccc4ccccc4c3)CC2)nc1` + Cc1cnc(CNC(=O)c2c(=O)c3ccc(N4CCCN(C)CC4)nc3n3c2sc2ccccc23)cn1 was tested, and the viability, T/C was 0.07%.

Same assay, conditions: second compound 0.1 µM; first compound 0.000999 µM; hits give low values
With `Cc1[nH]c2ccccc2c1CCNCc1ccc(/C=C/C(=O)NO)cc1` + Cc1cnc(CNC(=O)c2c(=O)c3ccc(N4CCCN(C)CC4)nc3n3c2sc2ccccc23)cn1 the viability, T/C was 27.4%.

Same assay, conditions: second compound 0.1 µM; first compound 0.00316 µM; hits give low values
With `Cc1[nH]c2ccccc2c1CCNCc1ccc(/C=C/C(=O)NO)cc1` + Cc1cnc(CNC(=O)c2c(=O)c3ccc(N4CCCN(C)CC4)nc3n3c2sc2ccccc23)cn1 the viability, T/C was 31.7%.

Same assay, conditions: second compound 0.1 µM; first compound 0.00999 µM; hits give low values
For `Cc1[nH]c2ccccc2c1CCNCc1ccc(/C=C/C(=O)NO)cc1` + Cc1cnc(CNC(=O)c2c(=O)c3ccc(N4CCCN(C)CC4)nc3n3c2sc2ccccc23)cn1, the viability, T/C was 21.3%.

Same assay, conditions: second compound 0.1 µM; first compound 0.0316 µM; hits give low values
`C#Cc1c(F)ccc2cc(O)cc(-c3ncc4c(N5CC6CCC(C5)N6)nc(OCC56CCCN5CC(F)C6)nc4c3F)c12` (stereo unspecified) + Cc1cnc(CNC(=O)c2c(=O)c3ccc(N4CCCN(C)CC4)nc3n3c2sc2ccccc23)cn1 showed a viability, T/C of 30.7%. `C=CCn1c(=O)c2cnc(Nc3ccc(N4CCN(C)CC4)cc3)nc2n1-c1cccc(C(C)(C)O)n1` + Cc1cnc(CNC(=O)c2c(=O)c3ccc(N4CCCN(C)CC4)nc3n3c2sc2ccccc23)cn1 was tested, and the viability, T/C was 25.2%. Compound `CC(C)(O)C1CCC(Nc2ccc3ncc(-c4cccc(C(F)(F)F)c4)n3n2)CC1` (stereo unspecified) + Cc1cnc(CNC(=O)c2c(=O)c3ccc(N4CCCN(C)CC4)nc3n3c2sc2ccccc23)cn1 has a viability, T/C of 31.4%. `CCCS(=O)(=O)Nc1ccc(F)c(C(=O)c2c[nH]c3ncc(-c4ccc(Cl)cc4)cc23)c1F` + Cc1cnc(CNC(=O)c2c(=O)c3ccc(N4CCCN(C)CC4)nc3n3c2sc2ccccc23)cn1 was tested, and the viability, T/C was 20.7%. `Cc1[nH]c2ccccc2c1CCNCc1ccc(/C=C/C(=O)NO)cc1` + Cc1cnc(CNC(=O)c2c(=O)c3ccc(N4CCCN(C)CC4)nc3n3c2sc2ccccc23)cn1 was tested, and the viability, T/C was 18.4%. With `O=C(NO)c1cnc(N2CCN(S(=O)(=O)c3ccc4ccccc4c3)CC2)nc1` + Cc1cnc(CNC(=O)c2c(=O)c3ccc(N4CCCN(C)CC4)nc3n3c2sc2ccccc23)cn1 the viability, T/C was 19.2%.

Same assay, conditions: second compound 0.1 µM; first compound 0.0999 µM; hits give low values
Work on `Cc1[nH]c2ccccc2c1CCNCc1ccc(/C=C/C(=O)NO)cc1` + Cc1cnc(CNC(=O)c2c(=O)c3ccc(N4CCCN(C)CC4)nc3n3c2sc2ccccc23)cn1 yielded a viability, T/C of 6.46%.

Same assay, conditions: second compound 0.1 µM; first compound 0.1 µM; hits give low values
Work on `C#Cc1c(F)ccc2cc(O)cc(-c3ncc4c(N5CC6CCC(C5)N6)nc(OCC56CCCN5CC(F)C6)nc4c3F)c12` (stereo unspecified) + Cc1cnc(CNC(=O)c2c(=O)c3ccc(N4CCCN(C)CC4)nc3n3c2sc2ccccc23)cn1 yielded a viability, T/C of 35.5%. With `C=CCn1c(=O)c2cnc(Nc3ccc(N4CCN(C)CC4)cc3)nc2n1-c1cccc(C(C)(C)O)n1` + Cc1cnc(CNC(=O)c2c(=O)c3ccc(N4CCCN(C)CC4)nc3n3c2sc2ccccc23)cn1 the viability, T/C was 25.4%. In the case of `CC(C)(O)C1CCC(Nc2ccc3ncc(-c4cccc(C(F)(F)F)c4)n3n2)CC1` (stereo unspecified) + Cc1cnc(CNC(=O)c2c(=O)c3ccc(N4CCCN(C)CC4)nc3n3c2sc2ccccc23)cn1, the viability, T/C is reported as 36.8%. For `CCCS(=O)(=O)Nc1ccc(F)c(C(=O)c2c[nH]c3ncc(-c4ccc(Cl)cc4)cc23)c1F` + Cc1cnc(CNC(=O)c2c(=O)c3ccc(N4CCCN(C)CC4)nc3n3c2sc2ccccc23)cn1, the viability, T/C was 21.9%. With `O=C(NO)c1cnc(N2CCN(S(=O)(=O)c3ccc4ccccc4c3)CC2)nc1` + Cc1cnc(CNC(=O)c2c(=O)c3ccc(N4CCCN(C)CC4)nc3n3c2sc2ccccc23)cn1 the viability, T/C was 21.4%.

Same assay, conditions: second compound 0.1 µM; first compound 0.316 µM; hits give low values
`C#Cc1c(F)ccc2cc(O)cc(-c3ncc4c(N5CC6CCC(C5)N6)nc(OCC56CCCN5CC(F)C6)nc4c3F)c12` (stereo unspecified) + Cc1cnc(CNC(=O)c2c(=O)c3ccc(N4CCCN(C)CC4)nc3n3c2sc2ccccc23)cn1 gave a viability, T/C of 32.8%. `C=CCn1c(=O)c2cnc(Nc3ccc(N4CCN(C)CC4)cc3)nc2n1-c1cccc(C(C)(C)O)n1` + Cc1cnc(CNC(=O)c2c(=O)c3ccc(N4CCCN(C)CC4)nc3n3c2sc2ccccc23)cn1 showed a viability, T/C of 13.4%. `CC(C)(O)C1CCC(Nc2ccc3ncc(-c4cccc(C(F)(F)F)c4)n3n2)CC1` (stereo unspecified) + Cc1cnc(CNC(=O)c2c(=O)c3ccc(N4CCCN(C)CC4)nc3n3c2sc2ccccc23)cn1 showed a viability, T/C of 26%. For `CCCS(=O)(=O)Nc1ccc(F)c(C(=O)c2c[nH]c3ncc(-c4ccc(Cl)cc4)cc23)c1F` + Cc1cnc(CNC(=O)c2c(=O)c3ccc(N4CCCN(C)CC4)nc3n3c2sc2ccccc23)cn1, the viability, T/C was 15.6%. `Cc1[nH]c2ccccc2c1CCNCc1ccc(/C=C/C(=O)NO)cc1` + Cc1cnc(CNC(=O)c2c(=O)c3ccc(N4CCCN(C)CC4)nc3n3c2sc2ccccc23)cn1 showed a viability, T/C of 0.06%. Work on `O=C(NO)c1cnc(N2CCN(S(=O)(=O)c3ccc4ccccc4c3)CC2)nc1` + Cc1cnc(CNC(=O)c2c(=O)c3ccc(N4CCCN(C)CC4)nc3n3c2sc2ccccc23)cn1 yielded a viability, T/C of 3.6%.

Same assay, conditions: second compound 0.1 µM; first compound 1 µM; hits give low values
With `C#Cc1c(F)ccc2cc(O)cc(-c3ncc4c(N5CC6CCC(C5)N6)nc(OCC56CCCN5CC(F)C6)nc4c3F)c12` (stereo unspecified) + Cc1cnc(CNC(=O)c2c(=O)c3ccc(N4CCCN(C)CC4)nc3n3c2sc2ccccc23)cn1 the viability, T/C was 36.2%.
